The results in this text go back to publication PMC9143043, “Synthesis and Biological Evaluation of 5′-O-Fatty Acyl Ester Derivatives of 3′-Fluoro-2′,3′-dideoxythymidine as Potential Anti-HIV Microbicides” (Molecules, 2022).

Data set [1] in a line: Log D by liquid-liquid distribution chromatography. It is filed as physicochemical. The conditions noted are these: octanol-coated column with octanol-saturated mobile phases, pH 7.4. On the procedure:
Physicochemical properties including pKa, Log D, and solubility were determined for 5 (as a model compound). […] It was not possible to measure the partition coefficient (Log P) of the fatty acyl derivatives of FLT and AZT in a standard n-octanol/water mixture because of the insolubility of the compounds in water. The cLog P value was calculated as 5.23 using ChemDraw. […] Since most of 5 is in its neutral form, the Log D value will correspond to the Log P value.
The Log P of 5 was initially investigated by the pH-metric (potentiometric) method. The sample was titrated in three triple titrations from pH 2.5 to pH 11.9 at concentrations of 0.7–1.1 mM in various ratios of octanol/water. The results indicated high sample lipophilicity, although the Log P could not be determined due to the apparent pKa in octanol shifting out of the measurable range. Therefore, the Log D of 5 at pH 7.4 was measured as 5.04 using liquid–liquid distribution chromatography. The Profiler LDA is an isocratic chromatography system that uses an octanol-coated column with octanol saturated mobile phases adjusted to pH 7.4. […]

Data set [2] in a line: Solubility (shake-flask, UV detection; organic solvents). In kind it is physicochemical. On the procedure: Solubility for 5 was investigated by the shake-flask methodology with UV-spectroscopic sample detection. To produce a saturated solution of 5, approximately 1 mg of solid material was added to 10 mL of an aqueous solution, which was adjusted to pH 2.3 with 0.5 M HCl. The sample was then sonicated in an ultrasonic bath for several hours (at room temperature) before being left to equilibrate for a period of approximately 3 days. The supernatant was then filtered under vacuum through a 0.2 µm PVDF filter plate, and the UV absorption spectrum of the sample was measured (after adjusting the pH of the solution to 11.8 with 0.5 M KOH). Molar absorption coefficients of 5 were obtained at pH 11.8 for 25 µM, 50 µM, and 100 µM solutions of 5, in order to quantify the concentration of the sample in the saturated supernatant. […] However, 5 was less soluble in DMSO (~4.1 mg/mL).

The test system of a further data set is HIV-1 4755-5 MDR (B-MDR). The data set can be described thus: PBMC multi-round infection assay, resistant isolate 4755-5. In kind it is cell-based. On the procedure: (§1) Based on a preliminary screening, conjugates 5 and 8 were evaluated for their ability to inhibit a drug-resistant virus in a peripheral blood mononuclear cell (PBMC) assay. In this assay, FLT, 5, and 8 were tested against B- and C-wild type and A-17 and 4755–5 multidrug-resistant (MDR) clinical isolates of HIV-1, where compounds were incubated with PBMCs for 6 h and then washed off before the addition of the virus and further culture for 7 days.
(§2) For the assessment of compounds against the wild type (WT; R5; clones = 94US3393IN [B subtype] and 98USMSC5016 [C subtype]) and drug-resistant (clones = 4755−5 and A17) HIV-1 clinical isolates, PHA-P stimulated cells from at least two normal donors were pooled, diluted in fresh media, and plated in the interior wells of a 96-well round-bottom microplate. Pooling PBMCs from more than one donor was used to minimize the variability observed between the individual donors, which results from the quantitative and qualitative differences in HIV infection and overall response to the PHA and IL-2 of primary lymphocyte populations. Each plate contained virus/cell control wells (cells + virus), experimental wells (drug + cells + virus), and compound control wells (drug + media, no cells, necessary for MTS monitoring of cytotoxicity). Test drug dilutions were prepared in microtiter tubes, and each concentration was placed in appropriate wells. Following the addition of the drug dilutions to the PBMCs, a predetermined dilution of virus stock was then placed in each test well (final MOI ≅ 0.1). Because HIV-1 is not cytopathic to PBMCs, the same assay plate can be used for both the antiviral efficacy and cytotoxicity measurements. Compounds were incubated with virus and cells in a 96-well format for 6 h. The cells were then washed by removing 75% of the medium (150 μL) and replacing it with 150 μL of fresh (no drug) medium. The plates were then centrifuged (∼200 g) for 10 min, after which 150 μL of the medium was removed, and an additional 150 μL of fresh medium was added to each well and further incubated for 6 days or until peak reverse transcriptase (RT) activity was detected. A microtiter plate-based RT reaction was utilized. Incorporated radioactivity (counts per minute, CPM) was quantified using standard liquid scintillation techniques. Compound IC50 (50%, inhibition of virus replication) was calculated using statistical software and regression analysis. A cellular uptake study was conducted for fluorescence conjugates 23 and 24 using a previously published procedure with minor modifications. All of the experiments were conducted in triplicate.

Data set [3] deals with human vaginal cells (VK-2/E6E7). Briefly: Vaginal cell cytotoxicity (MTS assay). In kind it is cell-based. The conditions noted are these: 6 h incubation; 31-1000 µg/mL. On the procedure:
A commercially used spermicidal agent (N-9) and conjugate cytotoxicity was evaluated using immortalized human vaginal cells (VK-2/E6E7). […] Observed cytotoxicity from N-9 could be correlated with the generation of higher levels of cytokines by N-9.
Human T lymphoblastoid cells (CCRF-CEM, ATCC No. CCL-119) were grown to 70% confluency in a culture medium. CCRF-CEM cells were incubated with 10 µM of the compounds and mixed with trypan blue (0.1%) to color the dead cells. The percentage of viability was calculated by using a Cellometer Auto T.4 (Nexcelom Bioscience). The cell viability against the vaginal cells (VK-2/E6E7) was conducted according to the previously reported procedure. The effect of conjugates on the sperm viability and mobility was evaluated as described previously.
Figure 2 (A) Dose–response curves of the vaginal cytotoxicity in VK-2 cells (MTS assay) for 5, 6, 8, and N-9 after 6 h incubations. (B) Proinflammatory cytokine (IL-1α) production in the VK-2 cells (ELISA) after a 6 h incubation in the presence of 5, 6, 8, and N-9.

The subject of data set [4] is HIV-1 98USMSC5016 (C-Wild Type). Briefly: PBMC multi-round infection assay, clinical isolate 98USMSC5016. It is filed as cell-based. The note with it: Human immunodeficiency virus 1. On the procedure:
as §1, §2

Another data set relates to HIV-1 A-17 MDR (B-NNRTI). Briefly: PBMC multi-round infection assay, resistant isolate A-17. It is filed as cell-based. On the procedure: as §1, §2
Setting [5] is: Human immunodeficiency virus 1, PBMC.

pIC50: −log10 of the molar value. Read-outs that look alike come from different tables or passages of the source.

For `Cc1cn([C@H]2C[C@H](F)[C@@H](COC(=O)CCCCCCCCCCCN=[N+]=[N-])O2)c(=O)[nH]c1=O` [Compound 5, 3′-fluoro-2′,3′-dideoxy-5′-O-(12-azidododecanoyl)thymidine], the chromatographic logD in data set [1] stood at 5.04. Moreover, the solubility is approximately 4100 µg/mL in data set [2] (DMSO, organic solvent or mixture, DMSO, read-out: solubility in DMSO); not above 0.51 µM in data set [2] (aqueous solution adjusted to pH 2.3, pH 2.3, aqueous buffer, thermodynamic from solid, shake-flask, UV detection, read-out: aqueous solubility (upper limit)); more than 30000 µg/mL in data set [2] (ethanol, organic solvent or mixture, ethanol, read-out: solubility in ethanol). Besides, in data set [2] (mixture of water/methanol (60:40)), the “solubility in water/methanol (60:40)” value is “completely soluble”. Also, the pIC50 in the data set with HIV-1 4755-5 MDR (B-MDR) (setting [5]) was 7.40; in data set [4] it was 8.68; with HIV-1 A-17 MDR (B-NNRTI) (setting [5]), 8.36. The figures for the IC90 (with HIV-1 4755-5 MDR (B-MDR) (setting [5]); in data set [4]; in the data set on HIV-1 A-17 MDR (B-NNRTI) (setting [5])) were 507 nM, 8.6 nM and 14.1 nM, respectively. The “fold more potent than FLT against 4755-5” value with HIV-1 4755-5 MDR (B-MDR) (versus FLT IC50) is recorded as not below 2.7 fold. For the same compound, in data set [3], the “cytotoxicity to vaginal cells” value was “did not show significant cytotoxic effects”. Further, the “fold more potent than FLT against A-17” value with HIV-1 A-17 MDR (B-NNRTI) (versus FLT IC50) is “at least 6 fold”.
